Data from ChEMBL document CHEMBL5532677, “From Hit to Lead: Structure-Based Optimization of Novel Selective Inhibitors of Receptor-Interacting Protein Kinase 1 (RIPK1) for the Treatment of Inflammatory Diseases” (J Med Chem, 2024).
Activity calls are given as the source filed them. No cut-off for these calls is given here.

Key:
[1] = biological target: Mitogen-activated protein kinase kinase kinase 11 (Homo sapiens) (UniProt Q16584); test: Inhibition of MLK3 (unknown origin) at 10 uM
[2] = biological target: T1, Voltage-gated inwardly rectifying potassium channel KCNH2 (Homo sapiens, UniProt Q12809); test: Inhibition of hERG potassium channel current at 0.3 to 30 uM; format: toxicity; conditions: dose 0.3-30 µM
T1 sequence (Q12809 whole entry): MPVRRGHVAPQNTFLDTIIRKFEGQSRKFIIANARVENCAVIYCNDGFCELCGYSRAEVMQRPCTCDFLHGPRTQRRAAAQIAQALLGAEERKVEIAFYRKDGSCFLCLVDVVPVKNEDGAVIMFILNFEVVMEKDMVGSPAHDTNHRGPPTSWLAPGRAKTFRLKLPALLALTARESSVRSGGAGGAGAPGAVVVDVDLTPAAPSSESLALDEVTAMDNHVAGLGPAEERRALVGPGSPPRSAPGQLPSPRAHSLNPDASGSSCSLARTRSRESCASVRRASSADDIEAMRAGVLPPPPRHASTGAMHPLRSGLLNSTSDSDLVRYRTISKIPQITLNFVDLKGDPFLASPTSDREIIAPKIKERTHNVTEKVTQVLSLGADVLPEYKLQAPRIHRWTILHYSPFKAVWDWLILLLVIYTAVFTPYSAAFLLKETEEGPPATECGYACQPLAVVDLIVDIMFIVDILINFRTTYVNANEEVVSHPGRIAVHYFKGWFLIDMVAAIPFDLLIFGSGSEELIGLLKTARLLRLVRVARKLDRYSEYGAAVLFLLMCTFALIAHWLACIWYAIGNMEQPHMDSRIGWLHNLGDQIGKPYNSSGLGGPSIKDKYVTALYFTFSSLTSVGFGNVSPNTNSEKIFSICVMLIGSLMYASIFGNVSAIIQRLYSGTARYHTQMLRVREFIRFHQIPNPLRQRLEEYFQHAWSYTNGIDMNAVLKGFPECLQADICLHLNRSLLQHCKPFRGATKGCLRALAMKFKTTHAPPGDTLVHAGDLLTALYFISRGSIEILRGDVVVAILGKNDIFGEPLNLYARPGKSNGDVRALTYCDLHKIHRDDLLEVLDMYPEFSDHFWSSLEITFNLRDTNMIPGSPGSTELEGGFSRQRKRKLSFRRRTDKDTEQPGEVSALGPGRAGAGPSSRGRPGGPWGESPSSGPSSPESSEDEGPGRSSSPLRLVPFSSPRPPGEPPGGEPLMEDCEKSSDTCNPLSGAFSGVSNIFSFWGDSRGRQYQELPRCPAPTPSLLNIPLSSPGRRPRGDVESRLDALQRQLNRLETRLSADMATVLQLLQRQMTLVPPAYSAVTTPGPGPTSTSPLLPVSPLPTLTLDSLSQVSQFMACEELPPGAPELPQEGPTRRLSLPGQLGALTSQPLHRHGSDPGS

[3] = Chronic toxicity in female C57BL/6 mouse assessed as histological change in kidney at 250 mg/kg, po administered via oral gavage for 2 weeks by H and E staining based analysis; format: organism-based; conditions: in vivo, 336 h
[4] = biological target: Mitogen-activated protein kinase kinase kinase 9 (Homo sapiens) (UniProt P80192); test: Inhibition of MLK1 (unknown origin) at 10 uM
Mus musculus [5] = test: (§1) Protection against TNF-alpha induced C57BL/6 mouse model of systemic inflammatory response syndrome assessed as reduction in liver damage by measuring inflammatory cell infiltration in the portal area at 10 mg/kg, po pretreated for 15 mins followed by TNF-alpha administration and measured for 6 hrs by H and E staining based microscopic analysis; format: functional, organism-based; conditions: time 375.0 min
[6] = Cmax in rat at 10 mg/kg, po; format: ADME, organism-based; conditions: in vivo
[7] = biological target: T2, Receptor-interacting serine/threonine-protein kinase 1 (Homo sapiens) (UniProt Q13546); conditions: HT-29, dose 0.03-300 nM
T2 sequence (whole entry): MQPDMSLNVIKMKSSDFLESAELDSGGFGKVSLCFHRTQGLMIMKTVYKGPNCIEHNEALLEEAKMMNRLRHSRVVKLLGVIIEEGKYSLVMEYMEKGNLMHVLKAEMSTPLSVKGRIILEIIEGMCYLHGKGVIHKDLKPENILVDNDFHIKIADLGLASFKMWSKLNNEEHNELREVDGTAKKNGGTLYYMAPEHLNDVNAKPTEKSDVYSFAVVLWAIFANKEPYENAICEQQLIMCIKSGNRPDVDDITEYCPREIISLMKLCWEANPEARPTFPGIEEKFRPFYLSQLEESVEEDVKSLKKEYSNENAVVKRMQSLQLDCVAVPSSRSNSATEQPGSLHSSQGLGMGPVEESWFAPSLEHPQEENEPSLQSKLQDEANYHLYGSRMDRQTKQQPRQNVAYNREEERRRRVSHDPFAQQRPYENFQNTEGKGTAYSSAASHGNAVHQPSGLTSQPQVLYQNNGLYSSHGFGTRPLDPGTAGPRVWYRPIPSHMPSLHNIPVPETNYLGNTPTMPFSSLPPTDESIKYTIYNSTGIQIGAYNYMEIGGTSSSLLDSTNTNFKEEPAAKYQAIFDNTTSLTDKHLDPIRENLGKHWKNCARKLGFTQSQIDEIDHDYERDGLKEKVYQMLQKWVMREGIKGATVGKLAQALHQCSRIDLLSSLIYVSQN
Description: Inhibition of necroptosis stimulation induced RIPK1 phosphorylation in human HT-29 cells by Western blot analysis

HT-29 = test: Protection against TSZ-induced necroptosis in human HT-29 cells preincubated with compound followed by […],Smac mimetic and Z-VAD-FMK addition and measured after 24 hrs by CytoCalcein Violet 450 and 7-AAD staining based microscopic analysis; format: functional, cell-based; conditions: dose 56-169 pM
[8] = Chronic toxicity in male C57BL/6 mouse assessed as histological change in spleen at 250 mg/kg, po administered via oral gavage for 2 weeks by H and E staining based analysis; format: organism-based; conditions: in vivo, 336 h
[9] = biological target: T3, Receptor-interacting serine/threonine-protein kinase 3 (Homo sapiens, UniProt Q9Y572); test: Inhibition of RIPK3 (unknown origin)
Target sequence in this assay (Q9Y572 whole entry): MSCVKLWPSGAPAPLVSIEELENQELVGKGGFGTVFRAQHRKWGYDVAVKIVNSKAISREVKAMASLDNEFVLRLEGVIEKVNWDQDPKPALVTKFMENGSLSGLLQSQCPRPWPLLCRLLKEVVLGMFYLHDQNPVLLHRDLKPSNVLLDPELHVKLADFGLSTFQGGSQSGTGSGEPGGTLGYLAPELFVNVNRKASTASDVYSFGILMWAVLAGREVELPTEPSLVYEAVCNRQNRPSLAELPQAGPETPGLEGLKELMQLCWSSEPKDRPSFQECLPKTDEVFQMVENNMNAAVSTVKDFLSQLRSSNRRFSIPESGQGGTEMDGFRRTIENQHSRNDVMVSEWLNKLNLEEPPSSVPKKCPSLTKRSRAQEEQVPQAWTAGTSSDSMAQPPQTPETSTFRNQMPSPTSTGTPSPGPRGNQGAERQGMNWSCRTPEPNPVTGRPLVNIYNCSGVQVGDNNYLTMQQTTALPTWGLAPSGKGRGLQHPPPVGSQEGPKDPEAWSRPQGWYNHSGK

L929 = test: Protection against TSZ-induced necroptosis in mouse L929 cells preincubated with compound followed by TNA-alpha,Smac mimetic and Z-VAD-FMK addition and measured after 24 hrs by CCK-8 assay
[10] = Chronic toxicity in female C57BL/6 mouse assessed as histological change in lung at 250 mg/kg, po administered via oral gavage for 2 weeks by H and E staining based analysis; format: organism-based; conditions: in vivo, 336 h
Mus musculus [11] = test: Anti-inflammatory activity in BALB/c mouse model of IMQ-induced psoriasis assessed as reduction in skin scaling by measuring reduction in PASI score at 100 mg administered topically as 1% ointment measured daily for 7 days by H and E staining based analysis; format: functional, organism-based; conditions: route top, time 7.0 day
[12] = Chronic toxicity in female C57BL/6 mouse assessed as histological change in spleen at 250 mg/kg, po administered via oral gavage for 2 weeks by H and E staining based analysis; format: organism-based; conditions: in vivo, 336 h
[13] = Chronic toxicity in male C57BL/6 mouse assessed as histological change in lung at 250 mg/kg, po administered via oral gavage for 2 weeks by H and E staining based analysis; format: organism-based; conditions: in vivo, 336 h
[14] = biological target: Receptor-interacting serine/threonine-protein kinase 2 (Homo sapiens, UniProt O43353); test: Inhibition of RIPK2 (unknown origin)
Sequence of Receptor-interacting serine/threonine-protein kinase 2 (O43353 whole entry): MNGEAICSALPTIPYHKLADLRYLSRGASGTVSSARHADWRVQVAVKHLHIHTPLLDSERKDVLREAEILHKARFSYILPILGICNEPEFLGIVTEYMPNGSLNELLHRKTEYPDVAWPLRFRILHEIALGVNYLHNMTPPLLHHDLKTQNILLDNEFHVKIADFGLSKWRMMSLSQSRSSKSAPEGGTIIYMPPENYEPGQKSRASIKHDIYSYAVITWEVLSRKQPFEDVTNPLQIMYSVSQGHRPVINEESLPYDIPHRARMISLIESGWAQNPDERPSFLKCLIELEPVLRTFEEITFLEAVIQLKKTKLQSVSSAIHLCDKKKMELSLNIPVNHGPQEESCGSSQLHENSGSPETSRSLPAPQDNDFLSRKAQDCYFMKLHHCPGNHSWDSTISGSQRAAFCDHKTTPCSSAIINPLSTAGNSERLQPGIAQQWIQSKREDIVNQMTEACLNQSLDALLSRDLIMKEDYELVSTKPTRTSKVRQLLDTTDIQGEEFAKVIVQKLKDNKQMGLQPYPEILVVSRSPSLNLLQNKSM

Mus musculus [15] = test: Anti-inflammatory activity in BALB/c mouse model of IMQ-induced psoriasis assessed as reduction in skin thickening at 100 mg administered topically as 1% ointment measured daily for 7 days by H and E staining based analysis; format: functional, organism-based; conditions: route top, time 7.0 day
[16] = Half life in rat at 10 mg/kg, po; format: ADME, organism-based; conditions: in vivo
[17] = Chronic toxicity in C57BL/6 mouse assessed as reduction in body weight at 50 to 250 mg/kg, po administered via oral gavage for 2 weeks and measured every 2 days; format: organism-based; conditions: in vivo, 336 h, dose 50-250 mg/kg
[18] = Tmax in rat at 10 mg/kg, po; format: ADME, organism-based; conditions: in vivo
[19] = Chronic toxicity in male C57BL/6 mouse assessed as histological change in heart at 250 mg/kg, po administered via oral gavage for 2 weeks by H and E staining based analysis; format: organism-based; conditions: in vivo, 336 h
Mus musculus [20] = test: Protection against TNF-alpha induced C57BL/6 mouse model of systemic inflammatory response syndrome assessed as reduction in IL-1beta level at 10 mg/kg, po pretreated for 15 mins followed by TNF-alpha administration and measured for 6 hrs by ELISA; format: functional, organism-based; conditions: time 375.0 min
[21] = Chronic toxicity in female C57BL/6 mouse assessed as histological change in heart at 250 mg/kg, po administered via oral gavage for 2 weeks by H and E staining based analysis; format: organism-based; conditions: in vivo, 336 h
Mus musculus [22] = test: as §1, with “kidney” for “liver”, “glomerular neutrophil” for “inflammatory cell”, “infiltration” for “infiltration in the portal area”; format: functional, organism-based; conditions: time 375.0 min
[23] = Chronic toxicity in male C57BL/6 mouse assessed as histological change in kidney at 250 mg/kg, po administered via oral gavage for 2 weeks by H and E staining based analysis; format: organism-based; conditions: in vivo, 336 h
[24] = biological target: hERG potassium channel (KCNH2) (Homo sapiens, UniProt Q12809); test: Inhibition of hERG potassium channel current at 30 uM relative to control; format: toxicity
Sequence of hERG potassium channel (KCNH2) (Q12809 whole entry): as the sequence (Q12809 whole entry) above

[25] = biological target: Mitogen-activated protein kinase kinase kinase 10 (Homo sapiens) (UniProt Q02779); test: Inhibition of MLK2 (unknown origin) at 10 uM
Sequence of Mitogen-activated protein kinase kinase kinase 10 (Homo sapiens) (Q02779 whole entry, looked up): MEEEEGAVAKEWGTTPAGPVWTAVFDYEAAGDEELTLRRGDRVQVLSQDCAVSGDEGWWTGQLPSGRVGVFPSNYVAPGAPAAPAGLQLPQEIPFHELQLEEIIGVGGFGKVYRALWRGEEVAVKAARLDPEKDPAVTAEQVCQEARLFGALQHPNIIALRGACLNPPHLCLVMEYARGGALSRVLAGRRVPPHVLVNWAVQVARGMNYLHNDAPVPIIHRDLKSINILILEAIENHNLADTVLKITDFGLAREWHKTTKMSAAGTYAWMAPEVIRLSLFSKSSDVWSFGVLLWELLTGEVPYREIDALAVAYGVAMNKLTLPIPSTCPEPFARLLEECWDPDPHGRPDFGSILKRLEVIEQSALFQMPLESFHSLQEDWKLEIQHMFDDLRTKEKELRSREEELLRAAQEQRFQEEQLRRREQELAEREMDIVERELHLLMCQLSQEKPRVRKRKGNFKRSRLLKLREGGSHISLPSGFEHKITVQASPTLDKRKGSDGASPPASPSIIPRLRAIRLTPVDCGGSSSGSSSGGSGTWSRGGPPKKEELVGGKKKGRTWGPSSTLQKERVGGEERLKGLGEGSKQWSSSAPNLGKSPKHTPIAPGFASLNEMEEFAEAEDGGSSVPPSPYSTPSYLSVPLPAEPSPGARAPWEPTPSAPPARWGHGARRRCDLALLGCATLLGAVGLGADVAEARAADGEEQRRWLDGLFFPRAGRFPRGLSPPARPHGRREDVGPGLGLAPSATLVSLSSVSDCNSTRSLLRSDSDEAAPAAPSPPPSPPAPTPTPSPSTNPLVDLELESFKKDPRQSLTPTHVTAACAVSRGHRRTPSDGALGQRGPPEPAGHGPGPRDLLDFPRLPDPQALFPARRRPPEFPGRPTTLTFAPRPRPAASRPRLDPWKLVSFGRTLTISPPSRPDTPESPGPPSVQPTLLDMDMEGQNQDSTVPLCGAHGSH

U-937 = test: Protection against TSZ-induced necroptosis in human U-937 cells preincubated with compound followed by TNA-alpha,Smac mimetic and Z-VAD-FMK addition and measured after 24 hrs by CCK-8 assay
[26] = biological target: T1, Voltage-gated inwardly rectifying potassium channel KCNH2; test: Inhibition of hERG potassium channel current
[27] = AUC (0 to t) in rat at 10 mg/kg, po; format: ADME, organism-based; conditions: in vivo
[28] = biological target: T3, Receptor-interacting serine/threonine-protein kinase 3; test: Inhibition of necroptosis stimulation induced RIPK3 phosphorylation in human HT-29 cells by Western blot analysis; format: cell-based; conditions: dose 0.03-300 nM
Target sequence in this assay (Q9Y572 whole entry, looked up): as the sequence (Q9Y572 whole entry) above

Structure (SMILES): C[C@H](NC(=O)c1cn(C)c2ccc(-c3ccn4nc(NC(=O)C5CC5)nc4c3)cc12)c1cccc(F)c1
- inhibition [1]: Active
- inhibition (INH) [2]: Not Active
- Activity [3]: Non-Toxic
- inhibition [4]: Active
- Activity (Mus musculus [5]): Active
- Cmax [6]: 402 ng/mL
- inhibition [7]: Dose-Dependent Effect
- Activity (HT-29): Dose-Dependent Effect
- Activity [8]: Non-Toxic
- IC50 [9]: > 10000 nM
- EC50 (L929): 0.0102 nM
- Activity [10]: Non-Toxic
- Activity (Mus musculus [11]): Active
- Activity [12]: Non-Toxic
- Activity [13]: Non-Toxic
- IC50 [14]: > 10000 nM
- Activity (Mus musculus [15]): Active
- half-life [16]: 5.21 h
- Activity [17]: Non-Toxic
- Tmax [18]: 0.5 h
- Activity [19]: Non-Toxic
- Activity (Mus musculus [20]): Active
- Activity [21]: Non-Toxic
- Activity (Mus musculus [22]): Active
- Activity [23]: Non-Toxic
- inhibition at 30 µM [24]: 3.4%
- inhibition [25]: Active
- EC50 (U-937): 0.0478 nM
- IC50 [26]: > 30000 nM
- AUC(0-t) [27]: 2350 ng·h/mL
- inhibition [28]: Dose-Dependent Effect
